Results as given in paper PMC7987348, “Structural basis for human TRPC5 channel inhibition by two distinct inhibitors” (eLife, 2021).
Where a chain is given by its changes, count along the chain named. pIC50: −log10 of the molar value. Like-named read-outs stand apart in the source and are kept apart here.

Experiments:
hTRPC5 F414M = target: T1, hTRPC5 F414M (Homo sapiens, UniProt Q9UL62, F414M); test: FLIPR calcium assay, hTRPC5 mutant F414M; type: cell-based
T1 construct: We use full-length nontagged hTRPC5 construct for FLIPR assay unless indicated otherwise; expressed in transfected cells; host or cells: AD293
T1 sequence (Q9UL62 1-973 F414M): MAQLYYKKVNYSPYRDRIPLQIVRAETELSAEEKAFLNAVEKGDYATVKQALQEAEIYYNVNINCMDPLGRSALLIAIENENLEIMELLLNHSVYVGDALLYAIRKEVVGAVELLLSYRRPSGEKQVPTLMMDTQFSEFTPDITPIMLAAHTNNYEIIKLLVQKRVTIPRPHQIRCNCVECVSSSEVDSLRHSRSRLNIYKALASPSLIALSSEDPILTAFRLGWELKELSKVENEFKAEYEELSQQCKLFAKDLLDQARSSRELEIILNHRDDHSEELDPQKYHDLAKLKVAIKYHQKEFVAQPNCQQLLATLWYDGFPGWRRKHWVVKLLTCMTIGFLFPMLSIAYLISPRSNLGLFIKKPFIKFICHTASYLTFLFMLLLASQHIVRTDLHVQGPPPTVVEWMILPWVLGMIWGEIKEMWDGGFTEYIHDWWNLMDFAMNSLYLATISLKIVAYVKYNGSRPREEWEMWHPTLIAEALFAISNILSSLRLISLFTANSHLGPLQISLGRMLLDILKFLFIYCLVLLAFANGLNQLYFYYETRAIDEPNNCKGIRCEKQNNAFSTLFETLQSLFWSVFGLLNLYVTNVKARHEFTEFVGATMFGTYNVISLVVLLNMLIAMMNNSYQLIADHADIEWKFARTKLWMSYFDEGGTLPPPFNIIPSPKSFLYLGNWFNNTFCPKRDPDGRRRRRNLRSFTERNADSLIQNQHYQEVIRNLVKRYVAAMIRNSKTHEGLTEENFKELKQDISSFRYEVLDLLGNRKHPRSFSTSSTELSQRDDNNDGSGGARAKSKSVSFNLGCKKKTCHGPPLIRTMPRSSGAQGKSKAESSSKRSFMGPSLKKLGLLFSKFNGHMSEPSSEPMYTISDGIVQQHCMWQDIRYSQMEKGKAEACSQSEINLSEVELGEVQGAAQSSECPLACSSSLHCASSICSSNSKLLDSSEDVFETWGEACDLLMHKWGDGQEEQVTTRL
Method: […]. Then the suspended cell culture was further diluted for 5.4- to 7-fold with culture medium and seeded onto black well, clear bottom, poly-D-lysine-coated 96-well plate (Costar) and cultured overnight. We use full-length nontagged hTRPC5 construct for FLIPR assay unless indicated otherwise. hTRPC5 plasmids were transfected into AD293 cells (60-80% confluence) with PEI. 30–40 hr post-transfection, culture medium was discarded and cells were incubated with 50 μl per well of 4 μM Rhod-2/AM (AAT Bioquest) in TARODES’s buffer (10 mM HEPES, 150 mM NaCl, 4 mM KCl, 2 mM MgCl2, 2 mM CaCl2, 11 mM glucose, pH 7.4) supplemented with 0.02% Pluronic F-127 (Sigma) for 5 min in dark at room temperature. Then dye was removed and replaced with 50 μl of TARODE’s buffer per well. The application of compounds and detection of intracellular calcium elevation were performed using FLIPR-TETRA (Molecular Devices) at room temperature (25–27°C). Fluorescence signals were read with excitation/emission at 510–545/565–625 nm.
[…]. Then fluorescence was measured for 300 s.
Buffer A contains 2× concentration of working concentration of inhibitor. […]. for control-Min, both buffer A and buffer B were replaced by TARODE’s buffer.
[…]; the average of fluorescence value of last 20 time points was considered as the ‘end fluorescence’. The value of ‘end fluorescence’ minus ‘start fluorescence’ was considered as ‘signal value’ for each well. […].
Three independent experiments were performed on different days (biological replicates), with each experiment containing three replicates (technique replicates).

TRPC5 = system: TRPC5; parameters: method as in Richter et al., 2014; Zhou et al., 2017; Zhu et al., 2015; settings: ref Richter et al., 2014; Zhou et al., 2017; Zhu et al., 2015; read-out: IC50 for inhibition of TRPC5; cited from earlier work
TRPC7 = system: TRPC7; parameters: method as in Richter et al., 2014; settings: ref Richter et al., 2014; cited from earlier work
hTRPC5 = target: T2, hTRPC5 (Homo sapiens, UniProt Q9UL62); test: Whole cell recording of EA-elicited hTRPC5 currents in low calcium condition; settings: 50 μM CMZ; 200 nM EA; 1 mM EGTA and 1 mM EDTA to chelate intracellular Ca2+; −60 mV
T2 sequence (Q9UL62 1-973): T1 sequence (Q9UL62 1-973 F414M) with M414F

`Clc1ccc(Cn2c(CN3CCCC3)nc3ccccc32)cc1` [CMZ, clemizole] showed a Hill slope (hTRPC5 F414M; CMZ) of −1.45, a pIC50 (hTRPC5 F414M; CMZ, 14 mM extracellular calcium, read-out: IC50) of 5.67 and an IC50 (hTRPC5 F414M; CMZ, log of IC50 in μM, logIC50 ± SEM, n = 3, read-out: LogIC50 (converted)) of 2.14 µM. It also gave a remaining activity at 0.200195 µM (hTRPC5 F414M; read-out: normalized RFU (% WT), Clemizole 0.200195 μM, 14 mM Ca2+, each column one independent experiment) of 130%, a remaining activity at 0.400391 µM (hTRPC5 F414M; read-out: normalized RFU (% WT), Clemizole 0.400391 μM, 14 mM Ca2+, each column one independent experiment) of 116% and a remaining activity at 0.800781 µM (hTRPC5 F414M; read-out: normalized RFU (% WT), Clemizole 0.800781 μM, 14 mM Ca2+, each column one independent experiment) of 107%. For the same compound, the remaining activity at 6.40625 µM (hTRPC5 F414M; read-out: normalized RFU (% WT), Clemizole 6.40625 μM, 14 mM Ca2+, each column one independent experiment) was 32.1%, the pIC50 (TRPC5) was 5.89 to 6.00 and the “fold more potent against TRPC5 than TRPC7” value (TRPC7) was 26 fold. The “inhibition of EA-elicited currents” value (hTRPC5) was “could inhibit EA-elicited currents”.
